Measured values reported in ChEMBL document CHEMBL1125587, “Synthesis and antiviral and cytostatic properties of 3'-deoxy-3'-fluoro- and 2'-azido-3'-fluoro-2',3'-dideoxy-D-ribofuranosides of natural heterocyclic bases” (J Med Chem, 1991).
In brackets after ≈: the same amount, converted by molar mass.

How the values were obtained:
[1] = Concentration (MIC)required to reduce virus-induced cytopathogenicity in Primary rabbit kidney (PRK ) cells against HSV-2 with strain G; type: functional; settings: Oryctolagus cuniculus
[2] = Concentration (MIC)required to reduce virus-induced cytopathogenicity in Primary rabbit kidney (PRK ) cells against HSV-1 with a strain KOS; type: functional; settings: Oryctolagus cuniculus
[3] = Concentration (MCC) required to cause a microscopically detectable alteration of normal cell morphology, in Primary rabbit kidney (PRK) cells; type: functional, Oryctolagus cuniculus
HeLa [4] = assay: Concentration (MCC) required to cause a microscopically detectable alteration of normal cell morphology, in HeLa cells; type: functional; settings: Homo sapiens
[5] = Concentration (MIC), required to reduce virus-induced cytopathogenicity in Primary rabbit kidney (PRK ) cells against Vesicular stomatitis virus type 2; type: functional; settings: Oryctolagus cuniculus
[6] = Concentration (MIC), required to reduce virus-induced cytopathogenicity in Primary rabbit kidney (PRK ) cells against Vesicular stomatitis virus type 1; type: functional; settings: Oryctolagus cuniculus
Vero [7] = assay: Concentration (MCC) required to cause a microscopically detectable alteration of normal cell morphology, African green monkey kidney (Vero B) cells; type: functional; settings: Chlorocebus sabaeus
Vero [8] = assay: Concentration (MIC), which is required to reduce virus-induced cytopathogenicity in HeLa cells of African green monkey kidney (Vero B) cells against RNA viruses including para-influenza virus-3; type: functional; settings: Chlorocebus sabaeus
Vero [9] = assay: Concentration (MIC), which is required to reduce virus-induced cytopathogenicity in African green monkey kidney (Vero B) cells against Sindbis virus; type: functional; settings: Chlorocebus sabaeus
Vero [10] = assay: Concentration (MIC), which is required to reduce virus-induced cytopathogenicity in African green monkey kidney (Vero B) cells against Coxsackie virus-B4; type: functional, Chlorocebus sabaeus
Vero [11] = assay: Concentration (MIC), which is required to reduce virus-induced cytopathogenicity in African green monkey kidney (Vero B) cells against forest virus; type: functional; settings: Chlorocebus sabaeus
HeLa [12] = assay: Concentration (MIC), which is required to reduce virus-induced cytopathogenicity in HeLa cells against Polio virus type-1; type: functional; settings: Homo sapiens
[13] = Concentration (MIC), which is required to reduce virus-induced cytopathogenicity in Primary rabbit kidney (PRK ) cells against Vaccinia virus; type: functional; settings: Oryctolagus cuniculus
Vero [14] = assay: Concentration (MIC), which is required to reduce virus-induced cytopathogenicity in African green monkey kidney (Vero B) cells against Reo-virus-1; type: functional; settings: Chlorocebus sabaeus
Vero [15] = assay: Concentration (MIC), which is required to reduce virus-induced cytopathogenicity in African green monkey kidney (Vero B) cells against para-influenza virus-3; type: functional; settings: Chlorocebus sabaeus
[16] = Concentration (MIC)required to reduce virus-induced cytopathogenicity in Primary rabbit kidney (PRK ) cells against HSV-2 with a strain G; type: functional; settings: Oryctolagus cuniculus
[17] = Concentration (MIC), required to reduce virus-induced cytopathogenicity in HeLa cells of Primary rabbit kidney (PRK ) cells against Vesicular stomatitis virus type 2; type: functional; settings: Oryctolagus cuniculus
Raji = assay: Concentration required to reduce the viability of Human B-lymphoblast Raji cells; type: functional, cell-based
HeLa [18] = assay: Concentration (MIC), which is required to reduce virus-induced cytopathogenicity in HeLa cells o against Polio virus type-1; type: functional; settings: Homo sapiens
MOLT-4F = assay: Concentration required to reduce the viability of Human T-lymphoblast Molt/4F cells; type: functional, cell-based
MT4 = assay: Concentration required to reduce the viability of Human T-lymphoblast MT-4 cells; type: functional, cell-based
L1210 = assay: Concentration required to reduce the viability of Murine leukemia L1210 cells; type: functional, cell-based; settings: Mus musculus
Vero [19] = assay: Concentration (MIC), which is required to reduce virus-induced cytopathogenicity in African green monkey kidney (Vero B) cells against RNA viruses including Coxsackie virus-B4; type: functional; settings: Chlorocebus sabaeus
[20] = Concentration (MIC), which is required to reduce virus-induced cytopathogenicity in HeLa cells of Primary rabbit kidney (PRK ) cells against DNA viruses including Vaccinia virus; type: functional; settings: Oryctolagus cuniculus
HeLa [21] = assay: Concentration (MIC), which is required to reduce virus-induced cytopathogenicity in Primary rabbit kidney (PRK ) cells against Polio virus type-1; type: functional; settings: Homo sapiens
[22] = Concentration (MIC), required to reduce virus-induced cytopathogenicity in HeLa cells of Primary rabbit kidney (PRK ) cells against Vesicular stomatitis virus type 1; type: functional; settings: Oryctolagus cuniculus
[23] = Concentration (MIC)required to reduce virus-induced cytopathogenicity in Primary rabbit kidney (PRK ) cells against including HSV-2 with a strain G; type: functional; settings: Oryctolagus cuniculus
[24] = Chlorocebus sabaeus, read-out: MIC

Row | SMILES | MIC [2] | MCC [3] | MCC (HeLa [4]) | MIC [5] | MIC [6] | MCC (Vero [7]) | MIC (Vero [9]) | MIC (Vero [10]; [24]) | MIC (Vero [11]) | MIC (HeLa [12]) | MIC [13] | MIC (Vero [14]) | MIC (Vero [15]) | MIC [16] | IC50 (Raji) | IC50 (MOLT-4F) | IC50 (MT4) | IC50 (L1210) | other results
1 | Cc1cn([C@H]2O[C@H](CO)[C@@H](F)[C@H]2N=[N+]=[N-])c(=O)[nH]c1=O | > 400 µg/mL | >400 µg/mL | > 400 µg/mL | > 400 µg/mL | < 400 µg/mL | > 400 µg/mL | > 400 µg/mL | > 400 µg/mL | > 400 µg/mL | > 400 µg/mL | > 400 µg/mL | > 400 µg/mL |  |  |  |  |  |  | MIC [1]: > 400 µg/mL; MIC (Vero [8]): > 400 µg/mL
2 | Cc1cn([C@@H]2O[C@H](CO)[C@@H](F)[C@H]2N=[N+]=[N-])c(=O)[nH]c1=O | > 400 µg/mL | >400 µg/mL | > 400 µg/mL | > 400 µg/mL | > 400 µg/mL | > 400 µg/mL | > 400 µg/mL | > 400 µg/mL | > 400 µg/mL | > 400 µg/mL | > 400 µg/mL | > 400 µg/mL | > 400 µg/mL | > 400 µg/mL |  |  |  |  | 
3 | Nc1ccn([C@@H]2O[C@H](CO)[C@H](F)[C@H]2O)c(=O)n1 | > 400 µg/mL | >400 µg/mL | > 400 µg/mL |  | > 400 µg/mL | > 400 µg/mL | 300 µg/mL (≈ 1220 µM) | 150 µg/mL (≈ 612 µM) | > 400 µg/mL |  | > 400 µg/mL | 150 µg/mL (≈ 612 µM) | > 400 µg/mL | > 400 µg/mL | 98 µg/mL (≈ 400 µM) | 65 µg/mL (≈ 265 µM) | 7.9 µg/mL (≈ 32.2 µM) | 39 µg/mL (≈ 159 µM) | MIC [17]: 300 µg/mL (≈ 1220 µM); MIC (Vero [10]): 300 µg/mL (≈ 1220 µM); MIC (HeLa [18]): 150 µg/mL (≈ 612 µM)
4 | O=c1ccn([C@@H]2O[C@H](CO)[C@@H](F)[C@H]2O)c(=O)[nH]1 | > 400 µg/mL | >400 µg/mL | > 400 µg/mL | > 400 µg/mL | > 400 µg/mL | > 400 µg/mL | 300 µg/mL (≈ 1220 µM) | 300 µg/mL (≈ 1220 µM) | > 400 µg/mL | 150 µg/mL (≈ 609 µM) |  | 150 µg/mL (≈ 609 µM) | > 400 µg/mL | > 400 µg/mL | > 100 µg/mL | > 100 µg/mL | 6.9 µg/mL (≈ 28 µM) | > 100 µg/mL | MIC (Vero [19]): 300 µg/mL (≈ 1220 µM); MIC [20]: > 400 µg/mL
5 | [N-]=[N+]=NC1C(F)C(CO)OC1n1ccc(N)nc1=O (centres undefined) | > 400 µg/mL | >400 µg/mL | > 400 µg/mL | > 400 µg/mL | > 300 µg/mL | > 400 µg/mL | > 400 µg/mL | > 400 µg/mL | > 400 µg/mL | > 400 µg/mL | > 400 µg/mL | > 400 µg/mL | > 400 µg/mL | > 400 µg/mL |  |  |  |  | 
6 | Nc1nc(O)c2ncn([C@@H]3O[C@H](CO)[C@@H](F)[C@H]3O)c2n1 | > 100 µg/mL | 200 µg/mL | > 400 µg/mL | > 200 µg/mL | > 200 µg/mL | 400 µg/mL | 40 µg/mL (≈ 140 µM) |  | 40 µg/mL (≈ 140 µM) |  | 10 µg/mL (≈ 35.1 µM) | > 200 µg/mL | > 100 µg/mL | > 100 µg/mL | 29 µg/mL (≈ 102 µM) | 75 µg/mL (≈ 263 µM) | > 100 µg/mL | 5 µg/mL (≈ 17.5 µM) | MIC (HeLa [21]): 150 µg/mL (≈ 526 µM)
7 | [N-]=[N+]=NC1C(F)C(CO)OC1n1cnc2c(N)ncnc21 (centres undefined) | > 400 µg/mL | >400 µg/mL | > 400 µg/mL | > 200 µg/mL |  | > 400 µg/mL | > 200 µg/mL | 300 µg/mL (≈ 1020 µM) | > 200 µg/mL | > 200 µg/mL | 300 µg/mL (≈ 1020 µM) | > 200 µg/mL | > 200 µg/mL |  |  |  |  |  | MIC [22]: 300 µg/mL (≈ 1020 µM); MIC [23]: > 200 µg/mL; MIC (Vero [10]): >200 µg/mL
8 | Nc1ncnc2c1ncn2[C@@H]1O[C@H](CO)[C@@H](F)[C@H]1O | > 10 µg/mL | >40 µg/mL | 40 µg/mL | > 10 µg/mL |  | 40 µg/mL | 4 µg/mL (≈ 14.9 µM) |  | 4 µg/mL (≈ 14.9 µM) | 4 µg/mL (≈ 14.9 µM) | 2 µg/mL (≈ 7.43 µM) | 1 µg/mL (≈ 3.71 µM) | > 4 µg/mL | > 10 µg/mL | 3.9 µg/mL (≈ 14.5 µM) | 28 µg/mL (≈ 104 µM) | 0.22 µg/mL (≈ 0.817 µM) | 1.6 µg/mL (≈ 5.94 µM) | MIC [22]: > 40 µg/mL
